We go through one molecule from ChEMBL document CHEMBL1777796, “Synthesis and evaluation of carbaborane derivatives of indomethacin as cyclooxygenase inhibitors” (Bioorg Med Chem, 2011).

In assay [1] the target is T1, Prostaglandin G/H synthase 1 (Ovis aries, UniProt P05979).
T1 sequence (P05979 whole entry): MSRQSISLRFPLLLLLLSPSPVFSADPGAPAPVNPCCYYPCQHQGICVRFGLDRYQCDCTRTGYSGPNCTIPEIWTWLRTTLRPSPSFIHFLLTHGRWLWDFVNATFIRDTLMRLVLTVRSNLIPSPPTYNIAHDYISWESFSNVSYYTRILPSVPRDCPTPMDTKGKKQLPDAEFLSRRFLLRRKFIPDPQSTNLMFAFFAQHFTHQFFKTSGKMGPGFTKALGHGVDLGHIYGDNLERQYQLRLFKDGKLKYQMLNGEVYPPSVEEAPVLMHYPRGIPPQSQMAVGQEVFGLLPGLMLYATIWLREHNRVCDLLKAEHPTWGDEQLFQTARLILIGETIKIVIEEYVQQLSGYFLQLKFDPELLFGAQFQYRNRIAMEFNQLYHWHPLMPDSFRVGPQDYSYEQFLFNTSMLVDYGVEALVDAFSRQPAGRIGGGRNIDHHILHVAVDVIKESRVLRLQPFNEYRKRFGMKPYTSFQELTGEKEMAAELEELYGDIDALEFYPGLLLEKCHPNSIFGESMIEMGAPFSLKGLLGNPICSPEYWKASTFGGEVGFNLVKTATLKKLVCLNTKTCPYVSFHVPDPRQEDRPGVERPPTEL
Briefly: Inhibition of ovine COX1 assessed as conversion of [14C]-arachidonic acid to [14C]-prostaglandins preincubated for 17 mins by thin-layer chromatography analysis.

The target in assay [2] is T2, Prostaglandin G/H synthase 2 (Mus musculus, UniProt Q05769).
T2 sequence (Q05769 whole entry): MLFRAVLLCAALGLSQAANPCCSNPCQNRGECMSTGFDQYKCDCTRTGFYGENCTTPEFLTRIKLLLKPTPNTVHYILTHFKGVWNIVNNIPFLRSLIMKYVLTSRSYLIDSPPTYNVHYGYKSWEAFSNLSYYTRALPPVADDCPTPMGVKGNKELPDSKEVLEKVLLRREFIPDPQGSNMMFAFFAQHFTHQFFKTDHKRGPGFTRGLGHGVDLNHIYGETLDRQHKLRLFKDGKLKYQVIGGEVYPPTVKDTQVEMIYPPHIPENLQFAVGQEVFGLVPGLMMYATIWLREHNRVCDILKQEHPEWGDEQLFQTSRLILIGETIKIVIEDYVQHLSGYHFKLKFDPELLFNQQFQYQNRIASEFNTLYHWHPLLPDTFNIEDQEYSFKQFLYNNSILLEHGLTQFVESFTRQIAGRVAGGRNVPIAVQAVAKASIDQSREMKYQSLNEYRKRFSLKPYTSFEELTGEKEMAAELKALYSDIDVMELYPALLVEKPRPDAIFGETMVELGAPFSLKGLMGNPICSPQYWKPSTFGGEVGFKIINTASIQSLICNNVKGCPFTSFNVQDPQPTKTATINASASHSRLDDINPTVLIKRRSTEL
Briefly: Inhibition of mouse COX2 assessed as conversion of [14C]-arachidonic acid to [14C]-prostaglandins preincubated for 17 mins by thin-layer chromatography analysis.

Molecules are shown by their SMILES.

For orientation: IC50 means the concentration needed to halve the response being measured. On to `COc1ccc2c(c1)c(CC(=O)OC13CC4CC(CC(C4)C1)C3)c(C)n2C(=O)c1ccc(Cl)cc1`, for which the IC50 in assay [1] and in assay [2] was more than 25 µM in each case.
